Measurements published in ChEMBL document CHEMBL4680185, “Discovery of novel cyclin-dependent kinase (CDK) and histone deacetylase (HDAC) dual inhibitors with potent in vitro and in vivo anticancer activity” (Eur J Med Chem, 2020).

What was measured:
Experiment in all cases: cells
HCT-116 [1] = format: functional; conditions: Homo sapiens, time 72 hrs, read-out: GI
NCI-H460 [2] = format: functional; conditions: Homo sapiens, time 72 hrs, read-out: GI
HCT-116 [3] = format: functional, cell-based; conditions: Homo sapiens, HCT-116, 72 h
Description: Antiproliferative activity against human HCT116 cells assessed as inhibition of cell growth incubated for 72 hrs by CCK-8 assay

NCI-H460 [4] = format: functional, cell-based; conditions: Homo sapiens, NCI-H460, 72 h
Description: Antiproliferative activity against human H460 cells assessed as inhibition of cell growth incubated for 72 hrs by CCK-8 assay

A-375 = format: functional, cell-based; conditions: Homo sapiens, A-375, 72 h
Description: Antiproliferative activity against human A375 cells assessed as inhibition of cell growth incubated for 72 hrs by CCK-8 assay

HeLa = format: functional, cell-based; conditions: Homo sapiens, 72 h
Description: Antiproliferative activity against human Hela cells assessed as inhibition of cell growth incubated for 72 hrs by CCK-8 assay

SMMC-7721 = format: functional, cell-based; conditions: Homo sapiens, SMMC-7721, 72 h
Description: Antiproliferative activity against human SMMC7721 cells assessed as inhibition of cell growth incubated for 72 hrs by CCK-8 assay

HCT-116 [5] = format: functional; conditions: Homo sapiens, time 72 hrs, read-out: GI; remark: listed apart in the source
NCI-H460 [6] = format: functional; conditions: Homo sapiens, time 72 hrs, read-out: GI; remark: listed apart in the source

| Structure (SMILES) | inhibition of growth at 8 µM (HCT-116 [1]) [%] | inhibition of growth at 8 µM (NCI-H460 [2]) [%] | IC50 (HCT-116 [3]) [nM] | IC50 (NCI-H460 [4]) [µM] | IC50 (A-375) [nM] | IC50 (HeLa) [µM] | IC50 (SMMC-7721) [µM] | inhibition of growth at 2 µM (HCT-116 [5]) [%] | inhibition of growth at 2 µM (NCI-H460 [6]) [%] |
| --- | --- | --- | --- | --- | --- | --- | --- | --- | --- |
| COc1ccccc1C(=O)Nc1c[nH]nc1C(=O)NCc1ccc(C(=O)Nc2ccccc2N)cc1 | 75.4 | 45.5 | 3680 | 7.35 | 2660 | 8.13 | 8.32 | 23.5 | 5.73 |
| O=C(NO)c1ccc(CNC(=O)c2n[nH]cc2NC(=O)c2ccccc2F)cc1 | 77 | 57.1 | 2200 | 23.7 | 3010 | 6.61 | 16.7 | 51 | 23.5 |
| Nc1ccccc1NC(=O)Cc1ccc(NC(=O)c2n[nH]cc2NC(=O)c2ccccc2F)cc1 | 20.4 | 23.4 | – | – | – | – | – | 16.5 | 6.06 |
| O=C(Cc1ccc(NC(=O)c2n[nH]cc2NC(=O)c2c(F)cccc2F)cc1)NO | 25.6 | 30.2 | – | – | – | – | – | 29.9 | 0.04 |
| Nc1ccccc1NC(=O)Cc1ccc(NC(=O)c2n[nH]cc2NC(=O)c2c(F)cccc2F)cc1 | 81.6 | 73.8 | 3460 | 4.99 | 2970 | 8.89 | 16.5 | 76.8 | 3.52 |
| O=C(Cc1ccc(NC(=O)c2n[nH]cc2NC(=O)c2ccccc2)cc1)NO | 14.2 | 23.1 | – | – | – | – | – | 9.56 | 11.8 |
| Nc1ccccc1NC(=O)c1ccc(CNC(=O)c2n[nH]cc2NC(=O)c2c(F)cccc2F)cc1 | 79.1 | 80.5 | 1130 | 7.79 | 1700 | 4.48 | 15.2 | 73.1 | 13.9 |
| Nc1ccccc1NC(=O)c1ccc(CNC(=O)c2n[nH]cc2NC(=O)c2ccccc2)cc1 | 88.6 | 61.7 | 1660 | 6.32 | 1590 | 4.06 | 6.62 | 62.9 | 11.8 |
| O=C(CCCCCNC(=O)c1n[nH]cc1NC(=O)c1c(Cl)cccc1Cl)NO | 4.66 | 21.3 | – | – | – | – | – | 3.02 | 15.1 |
| O=C(Cc1ccc(NC(=O)c2n[nH]cc2NC(=O)c2c(F)cccc2Cl)cc1)NO | 44.9 | 37 | – | – | – | – | – | 21.7 | 12.5 |
| Nc1ccccc1NC(=O)Cc1ccc(NC(=O)c2n[nH]cc2NC(=O)c2c(F)cccc2Cl)cc1 | 74.3 | 75.1 | 2570 | 5.34 | 2890 | 4.3 | 14.4 | 60.4 | 16.4 |
| Nc1ccccc1NC(=O)c1ccc(CNC(=O)c2n[nH]cc2NC(=O)c2ccccc2F)cc1 | 81.2 | 57.6 | 4800 | 9.99 | 2270 | 3.44 | 6.85 | 39.8 | 7.25 |
| O=C(NO)c1ccc(CNC(=O)c2n[nH]cc2NC(=O)c2c(Cl)cccc2Cl)cc1 | 81.9 | 57.4 | 500 | 10.6 | 5050 | 4.84 | 14.6 | 68.7 | 45.4 |
| O=C(CCCNC(=O)c1n[nH]cc1NC(=O)c1c(F)cccc1F)NO | 6.54 | 25.3 | – | – | – | – | – | 0.91 | 13 |
| Nc1ccccc1NC(=O)Cc1ccc(NC(=O)c2n[nH]cc2NC(=O)c2ccccc2Cl)cc1 | 52 | 27.8 | – | – | – | – | – | 29.2 | 3.08 |
| O=C(Cc1ccc(NC(=O)c2n[nH]cc2NC(=O)c2ccccc2F)cc1)NO | 14.3 | 21.4 | – | – | – | – | – | 1.04 | 9.5 |
| O=C(CCCCCCNC(=O)c1n[nH]cc1NC(=O)c1c(F)cccc1F)NO | 13.8 | 6.84 | – | – | – | – | – | 12.1 | 3.57 |
| O=C(CCCCCNC(=O)c1n[nH]cc1NC(=O)c1c(F)cccc1F)NO | 59.4 | 28.8 | – | – | – | – | – | 4.87 | 22.9 |
| O=C(CCCCCCNC(=O)c1n[nH]cc1NC(=O)c1c(F)cccc1Cl)NO | 15.7 | 28.7 | – | – | – | – | – | 10 | 0.88 |
| O=C(CCCCCCNC(=O)c1n[nH]cc1NC(=O)c1c(Cl)cccc1Cl)NO | 20.1 | 17.9 | – | – | – | – | – | 1.07 | 17 |
| O=C(Cc1ccc(NC(=O)c2n[nH]cc2NC(=O)c2ccccc2Cl)cc1)NO | 4.52 | 26.6 | – | – | – | – | – | 0.84 | 9.04 |
| COc1ccccc1C(=O)Nc1c[nH]nc1C(=O)Nc1ccc(CC(=O)Nc2ccccc2N)cc1 | 30.5 | 26.8 | – | – | – | – | – | 13.6 | 3.12 |
| COc1ccccc1C(=O)Nc1c[nH]nc1C(=O)Nc1ccc(CC(=O)NO)cc1 | 24.5 | 24.2 | – | – | – | – | – | 9.38 | 1.58 |
| O=C(NO)c1ccc(CNC(=O)c2n[nH]cc2NC(=O)c2c(F)cccc2Cl)cc1 | 59.3 | 27.7 | – | – | – | – | – | – | – |
| O=C(CCCCNC(=O)c1n[nH]cc1NC(=O)c1c(F)cccc1F)NO | 14.9 | 15.8 | – | – | – | – | – | 5.76 | 0.4 |
| Nc1ccccc1NC(=O)c1ccc(CNC(=O)c2n[nH]cc2NC(=O)c2ccccc2Cl)cc1 | 84.4 | 17.4 | 900 | 6.36 | 2110 | 10.5 | 12.9 | 63.7 | 5.54 |
| Nc1ccccc1NC(=O)Cc1ccc(NC(=O)c2n[nH]cc2NC(=O)c2ccccc2)cc1 | 69.2 | 8.93 | – | – | – | – | – | 60 | 0.37 |
| O=C(NO)c1ccc(CNC(=O)c2n[nH]cc2NC(=O)c2ccccc2)cc1 | 61.7 | 31.6 | – | – | – | – | – | 29.4 | 12 |
| COc1ccccc1C(=O)Nc1c[nH]nc1C(=O)NCc1ccc(C(=O)NO)cc1 | 68.8 | 45.6 | – | – | – | – | – | 43.8 | 16 |
| O=C(NO)c1ccc(CNC(=O)c2n[nH]cc2NC(=O)c2c(F)cccc2F)cc1 | 64.5 | 7.33 | – | – | – | – | – | 25 | 0.46 |
